tested on: HEK293 cells; experiment: Preliminary screening as DNA vectors, GFP transfection of HEK293 cells; assay type: cell-based; settings: HEK293 cells; lipid/DOPE liposome with 75 ng plasmid DNA (psin-EGFP-IRES-Puro); number of cells expressing GFP divided by total number of nuclei (Hoechst)
How it was run: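 HEK293 cells in DMEM/10% FBS transfected with 75 ng EGFP plasmid per well complexed with amino lipid/DOPE liposomes in pH 5.6 sodium acetate. Hoechst nuclear stain added 20-24 h post-transfection, then cells cultured another 20-24 h. Confocal imaging gives GFP-positive cells as % of total nuclei.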

SMILES	Absolute DNA transfection efficiency in HEK293 cells
CCCCCCCCCCCCN(CCCCCCCCCCCC)c1nc(NCCCCCCCCCCC)nc(NCCN(C)C)n1 [Compound N112N12D1]	0.7%

same assay, conditions: amino lipid/DOPE liposome with 75 ng plasmid DNA (psin-EGFP-IRES-Puro); number of GFP-expressing cells divided by total nuclei (Hoechst)

SMILES	Absolute DNA transfection efficiency in HEK293 cells
CCCCCCCCCCCCCCCCNc1nc(NCCN(CC)CC)nc(SCCCCCCCCC)n1 [S9N16 D7]	6.4%
CCCCCCCCCCCCN(CCCCCCCCCCCC)c1nc(NCCN(CC)CC)nc(SCCCCCCCCCCC)n1 [S11^2N12 D7]	0.1%
CCCCCCCCCSc1nc(NCCN(CC)CC)nc(SCCCCCCC)n1 [S7S9 D7]	14.5%
CCCCCCCCCCCCSc1nc(NCC2CCN(C)CC2)nc(SCCCCCCCC)n1 [S8S12 D10]	23.5%
CCCCCCCCCCCCCCCCNc1nc(NCCCN(C)C)nc(SCCCCCCC)n1 [S7N16 D6]	26.2%
CCCCCCCCCCCCCCCCCCSc1nc(NCCCCCCCCC)nc(NCCN2CCCCC2)n1 [S18N9 D4]	4.0%
CCCCCCCCCCCCSc1nc(NCCCN(C)C)nc(SCCCCCCC)n1 [S7S12 D6]	11.7%
CCCCCCCCCCCCSc1nc(NCCCCCC)nc(NCCN2CCCCC2)n1 [S12N6 D4]	0.0%
CCCCCCCSc1nc(NCCCN(C)C)nc(SCCCCCC)n1 [S6S7 D6]	6.9%
CCCCCCCCCCCCCCCCCCNc1nc(NCCN(CC)CC)nc(SCCCCCCCCCCCCCC)n1 [S14N18 D7]	1.2%
CCCCCCCCCCCCCNc1nc(NCCN(C)C)nc(SCCCCCCCC)n1 [S8N13 D1]	18.3%
CCCCCCCCCCCCNc1nc(NCCN(CC)CC)nc(SCCCCCCCCCCC)n1 [S11N12 D7]	9.8%
CCCCCCCCCCSc1nc(NCCCN2CCOCC2)nc(SCCCCCC)n1 [S6S10 D8]	0.0%
CCCCCCSc1nc(NCCN2CCOCC2)nc(SCCCCCC)n1 [S6S6 D2]	0.4%
CCCCCCCCNc1nc(NCC2CCN(C)CC2)nc(SCCCCCCCC)n1 [S8N8 D10]	6.1%
CCCCCCCCSc1nc(NCCCCCC)nc(NCCN2CCCC2)n1 [S8N6 D3]	3.2%
CCCCCCCCCCSc1nc(NCCN2CCCCC2)nc(SCCCCCC)n1 [S6S10 D4]	4.5%
CCCCCCCCCCCCCCCSc1nc(NCCCCCCCC)nc(NCCCN(C)C)n1 [S15N8 D6]	23.9%
CCCCCCCCNc1nc(NCCN2CCCCC2)nc(SCCCCCCC)n1 [S7N8 D4]	15.5%
CCCCCCCCCCCCCCCCCCSc1nc(NCC2CCN(C)CC2)nc(N(CCCCCCCCCCCC)CCCCCCCCCCCC)n1 [S18^2N12 D10]	0.4%
CCCCCCCCCCCCCCCCCCSc1nc(NCCCCCCCC)nc(NCCCN2CCN(C)CC2)n1 [S18N8 D9]	6.6%
CCCCCCCCCNc1nc(NCCCN(C)C)nc(SCCCCCCCC)n1 [S8N9 D6]	33.3%
CCCCCCCCCCCCN(CCCCCCCCCCCC)c1nc(NCCN(CC)CC)nc(SCCCCCCC)n1 [S7^2N12 D7]	0.2%
CCCCCCCCCCCCCCCSc1nc(NCCCCCC)nc(NCCN2CCN(C)CC2)n1 [S15N6 D5]	14.9%

SMILES	Absolute DNA transfection efficiency in HEK293 cells
CCCCCCCCCCCCCCCCNc1nc(NCC2CCN(C)CC2)nc(SCCCCCCCCCCCCCCC)n1 [S15N16 D10]	0.3%
CCCCCCCCCNc1nc(NCCN2CCCC2)nc(SCCCCCCC)n1 [S7N9 D3]	12.3%
CCCCCCCCSc1nc(NCCCCCC)nc(NCC2CCN(C)CC2)n1 [S8N6 D10]	0.5%
CCCCCCCNc1nc(NCC2CCN(C)CC2)nc(SCCCCCC)n1 [S6N7 D10]	2.9%
CCCCCCCCNc1nc(NCCN2CCCCC2)nc(SCCCCCC)n1 [S6N8 D4]	1.7%
CCCCCCCCCCCCCCSc1nc(NCCCN(C)C)nc(SCCCCCCC)n1 [S7S14 D6]	4.4%
CCCCCCCCCCCCSc1nc(NCCCN2CCOCC2)nc(N(CCCCCCCCCCCC)CCCCCCCCCCCC)n1 [S12^2N12 D8]	0.0%
CCCCCCCCSc1nc(NCCCN2CCN(C)CC2)nc(SCCCCCCCC)n1 [S8S8 D9]	12.1%
CCCCCCCCCNc1nc(NCCCN2CCOCC2)nc(SCCCCCC)n1 [S6N9 D8]	0.0%
CCCCCCCCCCCCCNc1nc(NCCN2CCN(C)CC2)nc(SCCCCCCCC)n1 [S8N13 D5]	28.3%
CCCCCCCCCSc1nc(NCCN2CCCCC2)nc(SCCCCCCC)n1 [S7S9 D4]	15.1%
CCCCCCCCCCCCCNc1nc(NCC2CCN(C)CC2)nc(SCCCCCCCCCCCC)n1 [S12N13 D10]	2.4%
CCCCCCCSc1nc(NCCCCCC)nc(NCCCN(C)C)n1 [S7N6 D6]	27.2%
CCCCCCCCCCCCNc1nc(NCCN(C)C)nc(SCCCCCC)n1 [S6N12 D1]	4.7%
CCCCCCCCCCCCN(CCCCCCCCCCCC)c1nc(NCCN2CCCCC2)nc(SCCCCCCCCCCC)n1 [S11^2N12 D4]	0.0%
CCCCCCNc1nc(NCCCN2CCN(C)CC2)nc(SCCCCCC)n1 [S6N6 D9]	0.0%
CCCCCCCCCCCSc1nc(NCCN2CCCCC2)nc(SCCCCCCC)n1 [S7S11 D4]	14.2%
CCCCCCCCCCCCCCSc1nc(NCCCCCCCCCCCC)nc(NCCN2CCOCC2)n1 [S14N12 D2]	1.6%
CCCCCCCCCCCCCCCNc1nc(NCCCN(C)C)nc(SCCCCCCCCCCCCCCC)n1 [S15N15 D6]	0.0%
CCCCCCCCCCSc1nc(NCCCCCCC)nc(NCCCN2CCN(C)CC2)n1 [S10N7 D9]	4.5%
CCCCCCCCCCCSc1nc(NCCCCCCC)nc(NCCCN2CCOCC2)n1 [S11N7 D8]	13.4%
CCCCCCCCCCCCCCCCCCNc1nc(NCCN2CCN(C)CC2)nc(SCCCCCCCCC)n1 [S9N18 D5]	22.9%
CCCCCCCCCCCCCCCSc1nc(NCCCCCCCCCCC)nc(NCCN2CCOCC2)n1 [S15N11 D2]	19.3%
CCCCCCCNc1nc(NCCN(C)C)nc(SCCCCCCC)n1 [S7N7 D1]	23.6%

SMILES	Absolute DNA transfection efficiency in HEK293 cells
CCCCCCCCCCCCNc1nc(NCCCN(C)C)nc(SCCCCCC)n1 [S6N12 D6]	6.0%
CCCCCCCCCCCCCCCSc1nc(NCCCCCCC)nc(NCC2CCN(C)CC2)n1 [S15N7 D10]	33.4%
CCCCCCCCCCCNc1nc(NCC2CCN(C)CC2)nc(SCCCCCCC)n1 [S7N11 D10]	45.9%
CCCCCCCCCCCCCCCSc1nc(NCCCCCCCCC)nc(NCCCN2CCN(C)CC2)n1 [S15N9 D9]	13.4%
CCCCCCCCCCCCCCCCCCSc1nc(NCCCCCCCC)nc(NCCCN(C)C)n1 [S18N8 D6]	23.0%
CCCCCCCCCCCCCCCCCCNc1nc(NCCN2CCN(C)CC2)nc(SCCCCCCC)n1 [S7N18 D5]	8.2%
CCCCCCCCCCCCCCCCNc1nc(NCCN2CCCCC2)nc(SCCCCCCCCCCCCCCC)n1 [S15N16 D4]	0.4%
CCCCCCCCCCCCCNc1nc(NCCN2CCOCC2)nc(SCCCCCC)n1 [S6N13 D2]	1.9%
CCCCCCCCCCCCCCCNc1nc(NCCCN2CCOCC2)nc(SCCCCCCC)n1 [S7N15 D8]	7.9%
CCCCCCCCCSc1nc(NCCCCCCCC)nc(NCCCN2CCN(C)CC2)n1 [S9N8 D9]	25.7%
CCCCCCCCCCCCCCCNc1nc(NCCN2CCCCC2)nc(SCCCCCCCCCCCCCC)n1 [S14N15 D4]	0.4%
CCCCCCCCCCCCN(CCCCCCCCCCCC)c1nc(NCCCN2CCN(C)CC2)nc(SCCCCCCCCC)n1 [S9^2N12 D9]	0.6%
CCCCCCCCCCCNc1nc(NCCCN2CCOCC2)nc(SCCCCCCCCCC)n1 [S10N11 D8]	3.8%
CCCCCCCCCCCNc1nc(NCCCN2CCN(C)CC2)nc(SCCCCCC)n1 [S6N11 D9]	21.1%
CCCCCCCCCCCCCCCCCCSc1nc(NCCN2CCCCC2)nc(SCCCCCCC)n1 [S7S18 D4]	8.3%
CCCCCCCCCCCCCCCCCCNc1nc(NCCCN2CCOCC2)nc(SCCCCCCCCCCCCCCCC)n1 [S16N18 D8]	0.0%
CCCCCCCCCCCCNc1nc(NCCN2CCCC2)nc(SCCCCCCCCCCCC)n1 [S12N12 D3]	31.4%
CCCCCCCCCCCCCCCCCCSc1nc(NCCCCCCCCCCCCCCCC)nc(NCCN(C)C)n1 [S18N16 D1]	0.0%
CCCCCCCCCCCCCCCCCCNc1nc(NCCN(CC)CC)nc(SCCCCCCCCCCCC)n1 [S12N18 D7]	0.3%
CCCCCCCCCCCCN(CCCCCCCCCCCC)c1nc(NCCN2CCCCC2)nc(SCCCCCC)n1 [S6^2N12 D4]	0.1%
CCCCCCCCCCCCCCSc1nc(NCCCCCCCCCCC)nc(NCCN(C)C)n1 [S14N11 D1]	11.8%
CCCCCCCCCCCCCCSc1nc(NCCCCCCCCC)nc(NCCN(C)C)n1 [S14N9 D1]	20.8%
CCCCCCCCCCCCCCCCNc1nc(NCCN(C)C)nc(SCCCCCCC)n1 [S7N16 D1]	20.0%
